Inconclusive results and toxic doses are left out. How the source made its calls: active means survival T/C of 150% or more; inactive means T/C below 125% in these data.
System: BDF1 mice, B16 melanoma ip, median survival T/C
Assay: NCI In Vivo Anticancer Drug Screen. Data for tumor model B16 Melanoma (intraperitoneal) in B6D2F1 (BDF1) mice
Conditions: endpoint: median survival time, higher = longer survival
In short: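 Antitumor activity is assessed in mice bearing a transplanted tumor, with survival or tumor size compared against vehicle-dosed controls and expressed as T/C.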

[1] = dose: 1.56 mg/kg/injection, schedule: Q01DX009 (ip), vehicle: saline
[2] = dose: 6.25 mg/kg/injection, schedule: Q01DX009 (ip), vehicle: saline
[3] = dose: 100.0 mg/kg/injection, schedule: Q01DX009 (ip), vehicle: saline with Tween-80
[4] = dose: 25.0 mg/kg/injection, schedule: Q01DX009 (ip), vehicle: saline with Tween-80
[5] = dose: 50.0 mg/kg/injection, schedule: Q01DX009 (ip), vehicle: saline with Tween-80
[6] = dose: 100.0 mg/kg/injection, schedule: Q01DX009 (ip), vehicle: Klucel (hydroxypropylcellulose) (HPC)
[7] = dose: 200.0 mg/kg/injection, schedule: Q01DX009 (ip), vehicle: Klucel (hydroxypropylcellulose) (HPC)
[8] = dose: 400.0 mg/kg/injection, schedule: Q01DX009 (ip), vehicle: Klucel (hydroxypropylcellulose) (HPC)
[9] = dose: 100.0 mg/kg/injection, schedule: Q04DX003 (ip), vehicle: Klucel (hydroxypropylcellulose) (HPC)
[10] = dose: 200.0 mg/kg/injection, schedule: Q04DX003 (ip), vehicle: Klucel (hydroxypropylcellulose) (HPC)
[11] = dose: 50.0 mg/kg/injection, schedule: Q01DX009 (ip), vehicle: Klucel (hydroxypropylcellulose) (HPC)

Measured: T/C

COC1N(C2CC(O)C(CO)O2)C(=O)NC(=O)C1(F)Br (stereo unspecified)
inactive: [1] 100 % of control | dose: 3.12 mg/kg/injection, schedule: Q01DX009 (ip), vehicle: saline 87 % of control | dose: 5.0 mg/kg/injection, schedule: Q01DX009 (ip), vehicle: saline with Tween-80 106 % of control | [2] 102 % of control | dose: 10.0 mg/kg/injection, schedule: Q01DX009 (ip), vehicle: saline with Tween-80 109 % of control | dose: 12.5 mg/kg/injection, schedule: Q01DX009 (ip), vehicle: saline 108 % of control | dose: 20.0 mg/kg/injection, schedule: Q01DX009 (ip), vehicle: saline with Tween-80 104 % of control | dose: 25.0 mg/kg/injection, schedule: Q01DX009 (ip), vehicle: saline 88 % of control

NC(=O)c1cc(N2CC2)c([N+](=O)[O-])cc1[N+](=O)[O-]
inactive: dose: 5.0 mg/kg/injection, schedule: Q01DX009 (ip), vehicle: saline 104 % of control | dose: 10.0 mg/kg/injection, schedule: Q01DX009 (ip), vehicle: saline 109 % of control | dose: 20.0 mg/kg/injection, schedule: Q01DX009 (ip), vehicle: saline 95 % of control

c1cc[c]([Pb]([c]2ccccc2)([c]2ccccc2)[n]2ccc3ccccc32)cc1
inactive: dose: 2.08 mg/kg/injection, schedule: Q01DX009 (ip), vehicle: saline with Tween-80 102 % of control | dose: 3.12 mg/kg/injection, schedule: Q01DX009 (ip), vehicle: saline with Tween-80 97 % of control

CCOC(=O)C(=CN1CCCC1)C(=O)OCC
inactive: [3] 102 % of control | dose: 100.0 mg/kg/injection, schedule: Q04DX003 (ip), vehicle: saline with Tween-80 120 % of control | dose: 200.0 mg/kg/injection, schedule: Q01DX009 (ip), vehicle: saline with Tween-80 105 % of control | dose: 200.0 mg/kg/injection, schedule: Q04DX003 (ip), vehicle: saline with Tween-80 117 % of control | dose: 400.0 mg/kg/injection, schedule: Q01DX009 (ip), vehicle: saline with Tween-80 91 % of control | dose: 400.0 mg/kg/injection, schedule: Q04DX003 (ip), vehicle: saline with Tween-80 111 % of control

CCCC(=O)OCC1OC(n2cnc3c(=S)nc[nH]c32)C(OC(=O)CCC)C1OC(=O)CCC (stereo unspecified)
inactive: [4] 105 % of control | [5] 90 % of control

O=C(Nc1ccc(C(=O)O)cc1)Nc1nccs1
inactive: dose: 25.0 mg/kg/injection, schedule: Q01DX009 (ip), vehicle: distilled water + Tween-80 113 % of control | dose: 100.0 mg/kg/injection, schedule: Q01DX009 (ip), vehicle: distilled water + Tween-80 113 % of control | dose: 200.0 mg/kg/injection, schedule: Q01DX009 (ip), vehicle: distilled water + Tween-80 113 % of control

CCOC(C[Se][Se]CC(OCC)OCC)OCC
inactive: [1] 99 % of control | dose: 3.13 mg/kg/injection, schedule: Q01DX009 (ip), vehicle: saline 104 % of control | [2] 95 % of control

O=c1[nH]cnc2c1cnn2-c1ccccc1
inactive: [6] 90 % of control | [7] 90 % of control | [8] 103 % of control

CCCCCCCC(=O)CCCC
inactive: [6] 106 % of control | [7] 106 % of control | [8] 94 % of control

COc1ccc2c(c1)CN(S(=O)(=O)c1ccc(C)cc1)C=CC2=O
inactive: [9] 108 % of control | [10] 103 % of control | dose: 400.0 mg/kg/injection, schedule: Q04DX003 (ip), vehicle: Klucel (hydroxypropylcellulose) (HPC) 97 % of control

C1OCN2CSCC12 (stereo unspecified)
inactive: dose: 12.5 mg/kg/injection, schedule: Q01DX009 (ip), vehicle: saline with Tween-80 108 % of control | [4] 109 % of control | [5] 101 % of control | [3] 106 % of control

CCCCNC(=O)Nc1cc(C)c(C)cc1C
inactive: dose: 50.0 mg/kg/injection, schedule: Q01DX009 (ip), vehicle: gum acacia 95 % of control | dose: 100.0 mg/kg/injection, schedule: Q01DX009 (ip), vehicle: gum acacia 99 % of control | dose: 200.0 mg/kg/injection, schedule: Q01DX009 (ip), vehicle: gum acacia 91 % of control

O=S1(=O)N2CN3CN(C2)CN1C3
inactive: [11] 103 % of control | [6] 86 % of control

Clc1ccc(C(Cl)(Cl)Cl)cc1Cl
inactive: [11] 103 % of control | dose: 50.0 mg/kg/injection, schedule: Q04DX003 (ip), vehicle: Klucel (hydroxypropylcellulose) (HPC) 102 % of control | [6] 92 % of control | [9] 102 % of control | [7] 96 % of control | [10] 119 % of control
